“Also recorded” adds a separate entry of the source.
Molecular target: human protein kinase A (PKA) (Homo sapiens, UniProt P17612)
Test: Kinase/inhibitor assay on protein chip (33P-γ-ATP phosphorylation)
Format: biochemical
Conditions: peptide and MBP substrates; different concentrations of inhibitor; FIG. 7
Method: Substrates were bound to the surface of the GPTS-treated microwells on the protein chip at room temperature for one hour, then blocked with 1% BSA and 100 mM Tris pH 7.5, and washed three times with TBS buffer. Kinases and different concentrations of kinase inhibitors were added to the microwells in the presence of ^33P-γ-ATP. The phosphorylation reaction was carried out at 30° C. for thirty minutes. After completion of the reaction, the protein chip was washed extensively with TBS buffer at room temperature, and then allowed to dry. Phosphorylation signals were obtained by exposing the protein chip to either X-ray film or a phosphoimager.
A human protein kinase A (PKA), a human map kinase (MAPK), three yeast PKA homologs (TPK1, TPK2 and TPK3), and two other yeast protein kinases (HSL1 and RCK1) were tested against two substrates (i.e., a protein substrate for PKA and a commonly used kinase substrate, MBP) using different concentrations of PKIA (a specific human PKA inhibitor) or SB202190 (a MAPK inhibitor).

For Oc1ccc(-c2nc(-c3ccncc3)c(-c3ccc(F)cc3)[nH]2)cc1 [SB202190], the “inhibition of PKA activity” value was “did not inhibit; also recorded: did not show any inhibitory effect”.
